# Legend:
# Assay type in all cases: biochemical
# Akt2 = molecular target: T1, Akt2 (Homo sapiens, UniProt P31751); assay: Akt activation assay (PDK1-mediated activation, LANCE Ultra crosstide TR-FRET), Akt2; settings: read-out: Biological Assay 1 IC50 (nM) Akt2
# T1 construct: unspecified tag, removed (detagged) (cleaved yes); purchased SignalChem and Proteros (Akt2); Merck Millipore (PDK1) 14-452 (PDK1); none given for Akt2
# Experimental: (§1) Biological Assay 1: Akt Activation Assay
# (§2) Addition of a Europium-labelled antibody specific to the phosphopeptide allows energy transfer from the Europium donor to the Ultra Ulight™ acceptor if close enough in proximity.
# (§3) Full length active His6-tagged PDK1 was obtained from Merck Millipore (14-452).
# (§4) 1× assay buffer (AB): 50 mM HEPES pH 7.5, 1 mM EGTA, 10 mM MgCl2, 0.01% Tween. Immediately before use, DTT to a concentration of 2 mM was added.
# (§5) To prepare lipid vesicles: 1 mg/ml PtdIns(3,4,5)P3 solution (in 10 mM HEPES 7.5) was added to 16.7 mg/ml DOPS/DOPC mixture (in 10 mM HEPES pH 7.5) in a ratio of 1:8.3. MilliQ water was added to the solution to generate concentrations of 400 μM DOPS, 400 μM DOPC and 40 μM PtdIns(3,4,5)P3. The mixture was subjected to 5× freeze/thaw cycles and aliquots stored at −20° C.
# (§6) 5 μL enzyme in 1×AB was incubated with 2.5 μL test compound. To start the reaction 2.5 μL reaction mix was added which consisted of PDK1, lipid preparations, crosstide and ATP in 1×AB. Final assay concentrations were as follows: 1% DMSO, 5 nM SignalChem Akt1/15 nM SignalChem Akt2/3 nM Signalchem Akt3/5 nM Proteros Akt1/5 nM proteros Akt2/5 nM Proteros Akt3, 5 nM PDK1, 5.5 μM DOPS, 5.5 μM DOPC, 0.55 μM PtdIns(3,4,5)P3, 100 μM ATP, 100 nM LANCE® Ultra Ulight™-Crosstide. After 30 min, the reaction was stopped using 5 μL 40 μM EDTA in 1× Detection buffer for 5 min. For detection, 5 μL 8 nM LANCE® Ultra Europium-anti-phospho-Crosstide antibody in 1× Detection buffer was added to each well and incubated for 1 h. Plates read with the EnVision® Multilabel Plate Reader, excitation at 320 nm and emission at 665 nm and 615 nm. Compound IC50 was determined using a 4-parameter equation.
# Akt3 = molecular target: T2, Akt3 (Homo sapiens, UniProt Q9Y243); assay: Akt activation assay (PDK1-mediated activation, LANCE Ultra crosstide TR-FRET), Akt3; settings: read-out: Biological Assay 1 IC50 (nM) Akt3
# T2 construct: unspecified tag, removed (detagged) (cleaved yes); purchased SignalChem and Proteros (Akt3); Merck Millipore (PDK1) 14-452 (PDK1); none given for Akt3
# Experimental: as §1, §2, §3, §4, §5, §6
# Akt1 = molecular target: T3, Akt1 (Homo sapiens, UniProt P31749); assay: Akt activation assay (PDK1-mediated activation, LANCE Ultra crosstide TR-FRET), Akt1; settings: read-out: Biological Assay 1 IC50 (nM) Akt1
# T3 construct: unspecified tag, removed (detagged) (cleaved yes); purchased SignalChem and Proteros (Akt1); Merck Millipore (PDK1) 14-452 (PDK1); none given for Akt1
# Experimental: as §1, §2, §3, §4, §5, §6
# T2 sequence (Q9Y243 whole entry): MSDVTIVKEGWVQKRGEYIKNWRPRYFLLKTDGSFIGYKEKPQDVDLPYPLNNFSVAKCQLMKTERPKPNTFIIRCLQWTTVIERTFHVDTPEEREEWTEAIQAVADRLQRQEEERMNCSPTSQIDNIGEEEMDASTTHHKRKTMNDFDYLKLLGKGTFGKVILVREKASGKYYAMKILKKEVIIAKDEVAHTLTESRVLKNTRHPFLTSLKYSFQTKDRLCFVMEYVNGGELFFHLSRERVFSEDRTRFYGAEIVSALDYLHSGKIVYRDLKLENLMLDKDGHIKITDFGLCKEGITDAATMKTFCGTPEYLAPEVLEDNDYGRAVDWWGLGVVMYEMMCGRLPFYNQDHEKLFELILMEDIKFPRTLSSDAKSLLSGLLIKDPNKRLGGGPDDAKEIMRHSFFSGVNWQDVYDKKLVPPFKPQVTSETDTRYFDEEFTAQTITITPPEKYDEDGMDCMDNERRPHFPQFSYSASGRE
# T3 sequence (P31749 whole entry): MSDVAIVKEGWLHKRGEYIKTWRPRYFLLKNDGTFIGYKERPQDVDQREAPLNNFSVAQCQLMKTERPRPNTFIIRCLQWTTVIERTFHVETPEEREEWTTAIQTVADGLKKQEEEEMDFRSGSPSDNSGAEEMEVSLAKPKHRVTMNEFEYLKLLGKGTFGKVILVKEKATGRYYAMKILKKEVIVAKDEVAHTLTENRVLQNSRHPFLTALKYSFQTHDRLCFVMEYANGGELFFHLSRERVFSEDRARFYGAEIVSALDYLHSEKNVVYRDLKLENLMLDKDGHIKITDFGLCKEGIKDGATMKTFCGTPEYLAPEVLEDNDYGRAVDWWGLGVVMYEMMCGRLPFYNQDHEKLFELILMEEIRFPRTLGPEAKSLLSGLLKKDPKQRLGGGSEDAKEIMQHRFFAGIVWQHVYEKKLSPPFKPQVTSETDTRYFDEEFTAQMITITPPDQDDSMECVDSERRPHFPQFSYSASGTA
# T1 sequence (P31751 whole entry): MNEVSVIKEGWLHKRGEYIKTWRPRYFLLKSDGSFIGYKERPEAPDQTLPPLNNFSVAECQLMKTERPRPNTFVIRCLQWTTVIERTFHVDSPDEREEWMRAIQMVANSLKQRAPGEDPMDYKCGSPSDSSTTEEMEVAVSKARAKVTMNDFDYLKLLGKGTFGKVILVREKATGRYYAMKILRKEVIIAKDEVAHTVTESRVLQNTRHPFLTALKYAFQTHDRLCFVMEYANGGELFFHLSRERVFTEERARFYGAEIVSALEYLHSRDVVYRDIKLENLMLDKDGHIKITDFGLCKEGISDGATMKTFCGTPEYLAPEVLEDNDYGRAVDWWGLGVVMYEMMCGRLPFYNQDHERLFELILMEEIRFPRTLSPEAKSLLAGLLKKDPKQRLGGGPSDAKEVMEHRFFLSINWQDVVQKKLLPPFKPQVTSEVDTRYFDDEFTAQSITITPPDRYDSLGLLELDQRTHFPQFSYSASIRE
SMILES,IC50 (Akt2),IC50 (Akt3),IC50 (Akt1)
"COC1CCC(CC(=O)Nc2cnc(-c3ccc(C4(N)COC4)cc3)c(-c3ccccc3)c2)CC1 (mixture of isomers) [Example 21, N-(6-(4-(3-aminooxetan-3-yl)phenyl)-5-phenylpyridin-3-yl)-2-(4-methoxycyclohexyl)acetamide]",1100 nM,210 nM,> 55000 nM
"CC(=O)N(C)[C@H]1CC[C@H](CC(=O)Nc2cnc(-c3ccc([C@@H](C)N)cc3)c(-c3ccccc3)c2)CC1 [Example 8, N-(6-(4-((R)-1-aminoethyl)phenyl)-5-phenylpyridin-3-yl)-2-(trans-4-(N-methylacetamido)cyclohexyl)acetamide]",710 nM,51 nM,12000 nM
"CC(=O)N(C)[C@H]1CC[C@H](CC(=O)Nc2cnc(-c3ccc([C@H](N)C(F)F)cc3)c(-c3ccccc3)c2)CC1 [Example 11, N-(6-(4-((S)-1-amino-2,2-difluoroethyl)phenyl)-5-phenylpyridin-3-yl)-2-(trans-4-(N-methylacetamido)cyclohexyl)acetamide]",> 20000 nM,630 nM,> 30000 nM
"CC(=O)N[C@H]1CC[C@H](CC(=O)Nc2cnc(-c3ccc([C@]4(N)C[C@@H](O)C4)cc3)c(-c3ccccc3)c2)CC1 [Example 13, 2-(trans-4-acetamidocyclohexyl)-N-(6-(4-(trans-1-amino-3-hydroxycyclobutyl)phenyl)-5-phenylpyridin-3-yl)acetamide]",480 nM,220 nM,
"CC(=O)N[C@H]1CC[C@H](CC(=O)Nc2cnc(-c3ccc(C4(N)COC4)cc3)c(-c3ccccc3)c2)CC1 [Example 14, 2-(trans-4-acetamidocyclohexyl)-N-(6-(4-(3-aminooxetan-3-yl)phenyl)-5-phenylpyridin-3-yl)acetamide]",1300 nM,600 nM,> 30000 nM
"Cc1cscc1-c1cc(NC(=O)C[C@H]2CC[C@H](N(C)S(C)(=O)=O)CC2)cnc1-c1ccc(C2(N)CCC2)cc1 [Example 19, N-(6-(4-(1-aminocyclobutyl)phenyl)-5-(4-methylthiophen-3-yl)pyridin-3-yl)-2-(trans-4-(N-methylmethylsulfonamido)cyclohexyl)acetamide]",> 26000 nM,6400 nM,> 30000 nM
"CC(C)(C(=O)N[C@H]1CC[C@H](CC(=O)Nc2cnc(-c3ccc(C4(N)CCC4)cc3)c(-c3cccnc3)c2)CC1)C(F)(F)F [Example 20, N-(trans-4-(2-((2-(4-(1-aminocyclobutyl)phenyl)-[3,3′-bipyridin]-5-yl)amino)-2-oxoethyl)cyclohexyl)-3,3,3-trifluoro-2,2-dimethylpropanamide]",> 15000 nM,6800 nM,> 30000 nM
"C[C@@H]1CC(CC(=O)Nc2cnc(-c3ccc(C4(N)COC4)cc3)c(-c3ccccc3)c2)C[C@H](C)O1 (some centres unmarked) [Example 22, N-(6-(4-(3-aminooxetan-3-yl)phenyl)-5-phenylpyridin-3-yl)-2-((2r,6s)-2,6-dimethyltetrahydro-2H-pyran-4-yl)acetamide]",2600 nM,210 nM,> 30000 nM
"Cc1nncn1[C@H]1CC[C@H](CC(=O)Nc2cnc(-c3ccc(C(C)(C)N)cc3)c(-c3ccccc3)c2)CC1 [Example 23, N-(6-(4-(2-aminopropan-2-yl)phenyl)-5-phenylpyridin-3-yl)-2-(trans-4-(3-methyl-4H-1,2,4-triazol-4-yl)cyclohexyl)acetamide]",11000 nM,430 nM,> 30000 nM
"CC(=O)N[C@H]1CC[C@H](CC(=O)Nc2cnc(-c3ccc(C4(N)CC(F)(F)C4)cc3)c(-c3ccccc3)c2)CC1 [Example 25, 2-(trans-4-acetamidocyclohexyl)-N-(6-(4-(1-amino-3,3-difluorocyclobutyl)phenyl)-5-phenylpyridin-3-yl)acetamide]",270 nM,170 nM,8300 nM
"NC1(c2ccc(-c3ncc(NC(=O)C[C@H]4CC[C@H](NS(=O)(=O)C5CC5)CC4)cc3-c3ccccc3)cc2)COC1 [Example 37, N-(6-(4-(3-aminooxetan-3-yl)phenyl)-5-phenylpyridin-3-yl)-2-(trans-4-(cyclopropanesulfonamido)cyclohexyl)acetamide]",590 nM,56 nM,> 30000 nM

# Now from value to compound:
IC50 (Akt2),IC50 (Akt3),IC50 (Akt1),SMILES
43 nM,10 nM,760 nM,"C[C@]1(O)C[C@@](N)(c2ccc(-c3ncc(NC(=O)C[C@H]4CC[C@H](NC(=O)C(F)F)CC4)cc3-c3ccccc3)cc2)C1 [Example A5, N-(trans-4-(2-((6-(4-(trans-1-amino-3-hydroxy-3-methylcyclobutyl)phenyl)-5-phenylpyridin-3-yl)amino)-2-oxoethyl)cyclohexyl)-2,2-difluoroacetamide]"
1400 nM,130 nM,> 30000 nM,"CC(C)(C(=O)N[C@H]1CC[C@H](CC(=O)Nc2cnc(-c3ccc(C4(N)COC4)cc3)c(-c3ccccc3)c2)CC1)C(F)(F)F [Example A6, N-(trans-4-(2-((6-(4-(3-aminooxetan-3-yl)phenyl)-5-phenylpyridin-3-yl)amino)-2-oxoethyl)cyclohexyl)-3,3,3-trifluoro-2,2-dimethylpropanamide]"
6900 nM,530 nM,> 30000 nM,"CC(=O)N[C@H]1CC[C@H](CC(=O)Nc2cnc(-c3ccc([C@H](C)N)cc3)c(-c3ccccc3)c2)CC1 [Example A8, 2-(trans-4-acetamidocyclohexyl)-N-(6-(4-((S)-1-aminoethyl)phenyl)-5-phenylpyridin-3-yl)acetamide]"
400 nM,80 nM,,"CC(=O)N[C@H]1CC[C@H](CC(=O)Nc2cnc(-c3ccc([C@@H](C)N)cc3)c(-c3ccccc3)c2)CC1 [Example A9, 2-(trans-4-acetamidocyclohexyl)-N-(6-(4-((R)-1-aminoethyl)phenyl)-5-phenylpyridin-3-yl)acetamide]"
18000 nM,4600 nM,> 30000 nM,"C[C@H](N)c1ccc(-c2ncc(NC(=O)C[C@H]3CC[C@H](NC(=O)C(C)(C)C(F)(F)F)CC3)cc2-c2ccccc2)cc1 [Example A10, N-(trans-4-(2-((6-(4-((S)-1-aminoethyl)phenyl)-5-phenylpyridin-3-yl)amino)-2-oxoethyl)cyclohexyl)-3,3,3-trifluoro-2,2-dimethylpropanamide]"
1500 nM,880 nM,,"C[C@@H](N)c1ccc(-c2ncc(NC(=O)C[C@H]3CC[C@H](NC(=O)C(C)(C)C(F)(F)F)CC3)cc2-c2ccccc2)cc1 [Example A11, N-(trans-4-(2-((6-(4-((R)-1-aminoethyl)phenyl)-5-phenylpyridin-3-yl)amino)-2-oxoethyl)cyclohexyl)-3,3,3-trifluoro-2,2-dimethylpropanamide]"
8100 nM,830 nM,> 30000 nM,"C[C@H](N)c1ccc(-c2ncc(NC(=O)C[C@H]3CC[C@H](N(C)S(C)(=O)=O)CC3)cc2-c2ccccc2)cc1 [Example A13, N-(6-(4-((S)-1-aminoethyl)phenyl)-5-phenylpyridin-3-yl)-2-(trans-4-(N-methylmethylsulfonamido)cyclo-hexyl)acetamide]"
260 nM,210 nM,9800 nM,"CN([C@H]1CC[C@H](CC(=O)Nc2cnc(-c3ccc(C4(N)CCC4)cc3)c(-c3ccccc3F)c2)CC1)S(C)(=O)=O [Example A16, N-(6-(4-(1-aminocyclobutyl)phenyl)-5-(2-fluorophenyl)pyridin-3-yl)-2-(trans-4-(N-methylmethylsulfonamido)cyclo-hexyl)acetamide]"
4100 nM,55 nM,> 37000 nM,"CC1(C(=O)N[C@H]2CC[C@H](CC(=O)Nc3cnc(-c4ccc(C(C)(C)N)cc4)c(-c4ccccc4)c3)CC2)CC1 [Example A21, N-(trans-4-(2-((6-(4-(2-aminopropan-2-yl)phenyl)-5-phenylpyridin-3-yl)amino)-2-oxoethyl)cyclohexyl)-1-methylcyclopropane-1-carboxamide]"
,160 nM,> 30000 nM,"CC(C)(C)C(=O)N[C@H]1CC[C@H](CC(=O)Nc2cnc(-c3ccc(C(C)(C)N)cc3)c(-c3ccccc3)c2)CC1 [Example A34, N-(trans-4-(2-((6-(4-(2-aminopropan-2-yl)phenyl)-5-phenylpyridin-3-yl)amino)-2-oxoethyl)cyclohexyl)pivalamide]"
